From US5908868A, “Retinol derivatives useful for enhancing immune response” (priority 1995, dated 1999)
Entries after “also recorded” stand apart in the source; their conditions may differ.

Key:
[1] = system: blast cells (thymocytes); assay: Flow cytometry phenotype of blast cells from activated thymocyte cultures; assay type: cell-based, BALB/c mouse; details: retinol- and 14HRR-supported cultures, data not shown
Method: To determine the phenotype of blast cells generated in the thymocyte cultures stimulated with immobilized anti-CD3 antibody and retinoids as well as the purity of CD4 and CD8 subsets isolated from pooled mouse lymph nodes, cells (10^5 -10^6 cells/sample), stained with FITC-conjugated anti-CD4 antibody and PE-conjugated anti-CD8 antibody, were analyzed by two-color flow cytometry with a FACScan. Dead cells were eliminated by forward low-angle scatter. Isotope controls were included in all experiments. To determine the phenotypes of activated thymocytes only blast cells were gated for collection and analysis.

[2] = system: thymocytes; assay: Proliferation of anti-CD3e activated thymocytes in serum-free medium; assay type: cell-based, BALB/c mouse; details: for proliferative response: anti-CD3, retinol 3×10^-6 M or 14HRR 6×10^-7 M; for growth over a four day period: retinol 3×10^-6 M, 14HRR 6×10^-7 M, human serum 3%
Method: FIG. 14A: Purified BALB/c thymocytes were activated with immobilized anti-CD3e antibody and cultivated for four days in ITLB medium with or without retinol (3×10^-6 M), 14HRR (6×10^-7 M) (fresh 14HRR was added every 12 hours), human serum (3%) or FCS (10%) at the cellular densities shown. Proliferation was assayed by tritiated thymidine incorporation into cellular DNA. The SDs were below 20%.
FIG. 14B: BALB/c thymocytes (10^6 /ml) were added to microtiter plates coated with titrated amounts of anti-CD3e antibody with […] retinol or without, as indicated. Proliferation was measured in hexaduplicate wells on day 3 by ^3 H thymidine incorporation assay.
FIG. 14C: BALB/c thymocytes (3×10^6 /ml) were activated with anti-CD3e mAb as FIG. 1A. The total number of viable cells was determined by counting trypan blue-excluding cells, and those of blast cells by counting viable large cells in six replicate wells. Because of the relatively low cell density required in the culture (see FIG. 14A), the numbers reported for blast cells are best estimates.
Purified thymocytes (5×10^5 cells/well) were stimulated by TCR crosslinking with immobilized anti-CD3e antibody (FIG. 15A) or 0.4 μg/ml Con A (FIG. 15B) in serum-free ITLB medium. The indicated amounts of retinoids were added either once at the beginning of the experiment (marked as "1x") or every 12 hours thereafter (marked as "6x"). DNA synthesis was measured after 72 hours by tritiated thymidine uptake as described.
Purified thymocytes (10^5 cells/well) were activated with anti-CD3 antibody in ITLB medium with or without retinol (3×10^-6 M), 14HRR (6×10^-7, added every 12 hours or human serum (3%)). DNA synthesis was measured daily by a 4 hour pulse of tritiated thymidine. SDs were ≤12%.
Thymocytes (5×10^4 /well) were activated by immobilized anti-CD3 mAb in medium ITLB. Retinol (2×10^-6 M) was added at initiation of culture, or delayed by 12 hours and 24 hours, respectively, or omitted altogether. ^3 H thymidine pulses of 4 hours were used to measure DNA synthesis of hexaduplicate wells. (SDs were 20% or less.)
Thymuses of 3 to 6-week-old BALB/c mice were teased in serum-free RPMI medium supplemented with 1% BSA, 10^-6 M linoleic acid and antibiotics. Depletion of accessory cells was achieved by two cycles of complement-dependent lysis with a mixture of anti-IA^d (5 μg/ml) and anti-Itd (1:500 diluted ascites fluid). Briefly, cells were incubated on ice for 30 minutes with Ia antibodies, spun down, resuspended in 1:40 diluted rabbit complement, and incubated at 37° C. for 45 minutes. Incubations and two subsequent washes were carried out with RPMI medium containing 1% BSA. Cell viability was evaluated by trypan blue dye exclusion. To determine the extent of depletion of accessory cells, samples were stained with FITC-conjugated anti-Fc receptor antibody and analyzed by flow cytometry on a FACScan instrument (Becton Dickinson). No FcR-bearing cells were detected by this procedure.
Cells were cultured in serum-free medium, referred to as ITLB, containing RPMI 1640 supplemented with 8×10^-7 M insulin (5 μg/ml), 7×10^-8 M transferrin (5 μg/ml), 2×10^-6 M linoleic acid, 2×10^-6 M delipidated BSA (0.12 mg/ml), 2 mM L-glutamine, 1 mM sodium pyruvate and antibiotics. They were seeded into 96-well flat-bottom plates at varying cellular densities in a final volume of 100 μl. In control experiments, cells were cultured in medium containing 10% FCS or 3% human serum and 5×10^-5 M 2 ME. T cells and thymocytes were activated with immobilized, purified anti-mab CD3e or by the addition of Con A in the presence or absence of different concentrations of retinoids. Unless indicated otherwise, retinoids were replenished every 12 hours to maintain a reasonably constant concentration of these labile compounds in culture. […]

[3] = system: B lymphocytes; details: cited from earlier work
[4] = previous analyses with B lymphocytes (33)

Structure (SMILES)	CD4+ cells among blast cells [1]	CD8+ cells among blast cells [1]	proliferative response [2]	potency relative to retinol in supporting T cell proliferation ([2]; provided at 12 hour intervals)	growth over a four day period [2]	effect of a single addition at initiation of culture ([2]; single addition)	potency relative to retinol in preventing necrotic cell death ([3]; on a concentration basis, previous studies)	concentration at which activity was demonstrated [3, 4]	difference in active concentration, 14HRR versus retinal [3, 4]	support of B cell growth/proliferation ([3]; previous studies)	response when supplied together with activation signal ([2]; no delay)	reduction of sufficient retinol concentration on repeated feeding ([2]; replenished twice daily, 3-day culture)	viability ([2]; retinol by itself)	effect of 12-hour delay in addition ([2]; retinol delayed 12 hours)	effect of delayed addition ([2]; retinol delayed by 24 hours)	T cell activation ([2]; retinol on its own)
CC(C=CC=C(C)C(O)CO)=CC=C1C(C)=CCCC1(C)C (stereo not drawn) [14HRR, 14-hydroxy-4,14-retro-retinol]	~70%	~30%	vigorous responses were elicited	as potent as retinol	exponential growth	ineffective; also recorded: does not enable sustained proliferation; also recorded: insufficient to drive T cell proliferation	20-40 times more potent	5 µM	40 fold	capable of supporting the proliferation of B cells in the absence of an external supply of retinol	–	–	–	–	–	–
CC1=C(/C=C/C(C)=C/C=C/C(C)=C/CO)C(C)(C)CCC1 [retinol, all-trans retinol]	~70%	~30%	vigorous responses were elicited	–	exponential growth	–	–	–	–	necessary for the growth of B lymphocytes	highest responses	five- to ten-fold lower	maintain a higher state of viability than anti-CD3e "only" stimulation, or omission of test reagents altogether	stagnation	complete failure of activation	no discernible T cell activation
